Test results published in article PMC8079714 (Nature Communications, 2021).
Several values for one entry are separate records, joined by “and”; a condition that tells them apart may be missing. Identical values can stand only once.

Test system: N. benthamiana leaves
Details: in vivo

Row | Substance | sites showing a visible cell death response out of total infiltrated sites
1 | TPGFHALVKPVRDEVIPAGKPYTLEWQPGG [MoSNP30rec] | 1/10 and 3/30
2 | DPIYTPNSGETIDAGAPYTVTW [SGP123-44rec] | 10/10 and 30/30
3 | TADFDPIFKPEAWQSVAAGQSFQITWDAPA [FsSNP30rec] | 9/10 and 27/30
4 | NPDFNPVNKPTPNEKIPAGSTYKIEWTAPA [VdSNP30rec] | 1/10 and 3/30
5 | TAGFDAISVPTNGQVVQVGDVLDITWAPNS [BcSNP30rec] | 10/10 and 30/30
6 | TAGFDAVLTPAKDEVVAAGSSYTITWDYSS [VmSNP30rec] | 0/10 and 0/30
7 | TPDFDPIYTPKKDEVVAAGSPLVITWDAPA [CpSNP30rec] | 9/10 and 10/10 and 28/30
8 | VADFDPVLTPTNWEEVSAGKTLEITWQAKP [FvSNP30rec] | 0/10 and 0/30
9 | W44A (FDPIYTPNSGETIDAGAPYTVTA) | 0/5 and 0/15
10 | TAGFDAISVPTNGQVVKVGDVLDITWAPNA [SsSNP30rec] | 9/10 and 10/10 and 28/30
